One series deals with Integrin alpha-V/beta-3 (Homo sapiens, UniProt P05106+P06756). As to the kind of experiment: Inhibition of alphaVbeta3 integrin receptor expressed in human 293 cells. Type of series: cell-based, HEK293.
For series [1], the target named is T1, Integrin alpha-V/beta-6 (Homo sapiens, UniProt P06756+P18564). As to the kind of experiment: Inhibition of alpha-V-beta-6 integrin receptor in human 293 cells. Type of series: cell-based, HEK293.
Series [2] can be described thus: Drug level in BALB/c mouse plasma after 6 hrs at 1 mg/kg, ip. Type of series: ADME, organism-based. On the set-up: dose 1 mg/kg, route intraperitoneal. To be noted: read-out: Drug uptake.
Series [3] has as its system M21. As to the kind of experiment: Decrease in tumor volume in SCID mouse implanted with human M21 cells at 100 mg/kg, ip twice daily after 28 days relative to control. Type of series: functional. The conditions noted are these: route intraperitoneal. Also on record: scale not given: the % may be the effect or the level left.
Series [4] has as its system M21. In words: Inhibition of tumor growth in twice daily ip dosed SCID mouse implanted with human M21 cells after 28 days. Type of series: functional, organism-based.
For series [5], the system named is Colon 26. As to the kind of experiment: Decrease in tumor weight in BALB/c mouse implanted with colon 26 tumor cells at 100 mg/kg, ip twice daily after 21 days relative to control. On the set-up: scale not given: the % may be the effect or the level left. Type of series: functional. To be noted: route intraperitoneal.
Series [6] is described as follows: Drug level in BALB/c mouse plasma after 6 hrs at 10 mg/kg, ip. Type of series: ADME, organism-based. Also on record: dose 10 mg/kg, route intraperitoneal. To be noted: read-out: Drug uptake.
In series [7] the test system is M21. As to the kind of experiment: Decrease in tumor weight in SCID mouse implanted with human M21 cells at 100 mg/kg, ip twice daily after 28 days relative to control. Type of series: functional. Also on record: scale not given: the % may be the effect or the level left. The conditions noted are these: route intraperitoneal.
In series [8] the test system is Colon 26. In words: Decrease in tumor volume in BALB/c mouse implanted with mouse colon 26 tumor cells at 100 mg/kg, ip twice daily after 21 days relative to control. To be noted: route intraperitoneal. Type of series: functional. On the set-up: scale not given: the % may be the effect or the level left.
Series [9] can be described thus: Bioavailability in mouse at 20 mg/kg, po. The conditions noted are these: in vivo. Type of series: ADME, organism-based.
Series [10] in a line: Drug level in BALB/c mouse plasma after 6 hrs at 100 mg/kg, ip. Type of series: ADME, organism-based. On the set-up: dose 100 mg/kg, route intraperitoneal. The conditions noted are these: read-out: Drug uptake.
Series [11] has as its target T1, Integrin alpha-V/beta-6. As to the kind of experiment: Inhibition of alpha-V-beta-6 integrin receptor in human HT29 cells. Type of series: cell-based, HT-29.
Series [12] relates to Colon 26. As to the kind of experiment: Inhibition of tumor growth in twice daily ip dosed BALB/c mouse implanted with mouse colon 26 tumor cells after 21 days. Type of series: functional, organism-based.
Another series relates to Mus musculus. In words: Decrease in colon 26 tumor-induced hypercalcemia in BALB/c mouse at 100 mg/kg, ip twice daily. Also on record: scale not given: the % may be the effect or the level left. Type of series: functional. The conditions noted are these: route intraperitoneal.
Series [13] in a line: Half life in mouse at 20 mg/kg po or 10 mg/kg iv. Type of series: ADME, organism-based. The conditions noted are these: in vivo.

Results on 21 compounds are retold here after ChEMBL document CHEMBL1147945, “R-isomers of Arg-Gly-Asp (RGD) mimics as potent alphavbeta3 inhibitors” (Bioorg Med Chem, 2007).

The source made the active and inactive calls. The rule behind the calls is not given here.

T1 sequence (P06756 31-889 limits assumed): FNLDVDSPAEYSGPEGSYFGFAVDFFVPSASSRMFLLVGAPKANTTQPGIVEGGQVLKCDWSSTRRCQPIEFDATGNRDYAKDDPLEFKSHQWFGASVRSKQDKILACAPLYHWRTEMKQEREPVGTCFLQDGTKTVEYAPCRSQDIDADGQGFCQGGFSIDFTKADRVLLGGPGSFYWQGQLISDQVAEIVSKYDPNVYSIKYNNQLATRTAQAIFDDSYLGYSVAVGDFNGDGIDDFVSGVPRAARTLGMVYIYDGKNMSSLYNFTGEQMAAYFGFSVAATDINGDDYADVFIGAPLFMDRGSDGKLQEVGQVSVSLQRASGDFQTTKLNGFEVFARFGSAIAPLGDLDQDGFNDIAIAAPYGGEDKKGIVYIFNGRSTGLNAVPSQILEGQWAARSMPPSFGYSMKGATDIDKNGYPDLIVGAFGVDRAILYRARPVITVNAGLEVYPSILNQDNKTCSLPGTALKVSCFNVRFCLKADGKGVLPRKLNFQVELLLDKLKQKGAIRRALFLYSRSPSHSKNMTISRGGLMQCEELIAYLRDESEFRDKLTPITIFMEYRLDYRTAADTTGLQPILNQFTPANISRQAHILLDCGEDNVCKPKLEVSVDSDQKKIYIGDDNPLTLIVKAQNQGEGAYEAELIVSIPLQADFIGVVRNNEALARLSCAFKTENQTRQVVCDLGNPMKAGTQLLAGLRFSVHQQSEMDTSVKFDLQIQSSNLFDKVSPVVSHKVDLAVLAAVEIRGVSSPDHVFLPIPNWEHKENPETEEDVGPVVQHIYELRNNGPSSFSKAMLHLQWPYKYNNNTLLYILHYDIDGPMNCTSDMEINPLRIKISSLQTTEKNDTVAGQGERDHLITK
T1 sequence (P06756 891-1048 limits assumed): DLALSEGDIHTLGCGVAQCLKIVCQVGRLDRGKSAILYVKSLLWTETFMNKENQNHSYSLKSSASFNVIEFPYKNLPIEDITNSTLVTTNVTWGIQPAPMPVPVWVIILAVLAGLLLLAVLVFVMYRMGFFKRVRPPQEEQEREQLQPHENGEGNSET
T1 sequence (P18564 22-788 limits assumed): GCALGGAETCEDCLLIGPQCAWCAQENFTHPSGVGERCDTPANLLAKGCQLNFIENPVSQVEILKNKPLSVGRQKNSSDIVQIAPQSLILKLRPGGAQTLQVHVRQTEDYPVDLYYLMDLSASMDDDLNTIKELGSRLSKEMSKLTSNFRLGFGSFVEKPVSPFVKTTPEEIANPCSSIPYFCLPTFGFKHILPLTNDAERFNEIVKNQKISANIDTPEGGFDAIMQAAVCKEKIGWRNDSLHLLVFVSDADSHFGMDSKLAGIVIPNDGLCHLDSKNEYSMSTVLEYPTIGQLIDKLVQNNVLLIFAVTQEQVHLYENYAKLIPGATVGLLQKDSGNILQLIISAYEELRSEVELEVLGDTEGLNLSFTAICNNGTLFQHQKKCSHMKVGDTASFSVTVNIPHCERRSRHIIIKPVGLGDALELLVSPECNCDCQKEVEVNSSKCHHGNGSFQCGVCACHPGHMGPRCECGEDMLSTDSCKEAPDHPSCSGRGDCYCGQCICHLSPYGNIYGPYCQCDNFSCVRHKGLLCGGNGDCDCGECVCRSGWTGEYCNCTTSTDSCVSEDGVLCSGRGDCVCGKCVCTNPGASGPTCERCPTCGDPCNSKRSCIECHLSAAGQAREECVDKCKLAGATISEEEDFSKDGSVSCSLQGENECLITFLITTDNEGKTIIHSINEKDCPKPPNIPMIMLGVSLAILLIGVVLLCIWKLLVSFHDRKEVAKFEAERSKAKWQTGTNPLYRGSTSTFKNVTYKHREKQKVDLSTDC
Integrin alpha-V/beta-3, sequence (P05106 27-788 limits assumed): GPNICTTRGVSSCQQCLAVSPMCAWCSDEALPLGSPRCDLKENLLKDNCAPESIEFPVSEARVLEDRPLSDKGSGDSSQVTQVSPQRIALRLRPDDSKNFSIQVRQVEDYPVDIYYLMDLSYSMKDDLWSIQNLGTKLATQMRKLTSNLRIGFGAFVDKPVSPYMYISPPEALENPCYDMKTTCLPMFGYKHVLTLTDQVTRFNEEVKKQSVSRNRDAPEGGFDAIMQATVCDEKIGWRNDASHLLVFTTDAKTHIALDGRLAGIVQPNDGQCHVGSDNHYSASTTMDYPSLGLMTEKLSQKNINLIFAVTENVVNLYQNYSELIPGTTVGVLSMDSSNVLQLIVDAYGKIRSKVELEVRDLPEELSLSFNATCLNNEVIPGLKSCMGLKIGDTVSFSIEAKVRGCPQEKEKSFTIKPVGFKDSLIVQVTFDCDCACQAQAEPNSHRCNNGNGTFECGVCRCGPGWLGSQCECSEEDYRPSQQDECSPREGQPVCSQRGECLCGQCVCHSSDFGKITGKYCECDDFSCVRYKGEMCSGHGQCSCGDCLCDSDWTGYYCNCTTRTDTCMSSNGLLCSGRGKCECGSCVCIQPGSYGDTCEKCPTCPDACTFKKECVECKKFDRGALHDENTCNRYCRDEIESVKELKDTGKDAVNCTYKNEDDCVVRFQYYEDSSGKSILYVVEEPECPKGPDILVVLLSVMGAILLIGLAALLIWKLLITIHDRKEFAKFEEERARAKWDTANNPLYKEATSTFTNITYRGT
Integrin alpha-V/beta-3, sequence (P06756 31-889 limits assumed): as the sequence (P06756 31-889 limits assumed) above
Integrin alpha-V/beta-3, sequence (P06756 891-1048 limits assumed): as the sequence (P06756 891-1048 limits assumed) above

In the case of `O=C(O)C[C@@H](NC(=O)CNC(=O)c1cncc(NC2=NCC(O)CN2)c1)c1cc(Cl)cc(Br)c1O` (stereo not given in full), the IC50 against Integrin alpha-V/beta-3 was 0.001 µM; against Integrin alpha-V/beta-6 [1], 0.615 µM.

With `O=C(O)C[C@@H](NC(=O)CNC(=O)c1cc(O)cc(NC2=NCC(O)CN2)c1)c1cc(Cl)cc(Br)c1O` (stereo not given in full), the IC50 on Integrin alpha-V/beta-3 is 0.003 µM; against Integrin alpha-V/beta-6 [1] it was 0.052 µM.

As to `O=C(O)C[C@@H](NC(=O)CNC(=O)c1cc(O)cc(NC2=NCC(F)CN2)c1)c1cc(Cl)cc(Br)c1O` (stereo not given in full), the IC50 against Integrin alpha-V/beta-3 was 0.001 µM; against Integrin alpha-V/beta-6 [11] it was 0.366 µM. Also, the concentration at 6 h came to 3300 ng/mL in series [2], 19400 ng/mL in series [6] and 84400 ng/mL in series [10]. Also, the Activity in the series on M21 [3] is 62%; in the series on M21 [4], “Dose-dependent effect”; in the series on Colon 26 [5], 55%; in the series on M21 [7], 53%; in the series on Colon 26 [8], 60%; in the series with Mus musculus, 64%. The compound further gave a bioavailability in series [9] of 5.9%. Also, the outcome with Colon 26 [12] was Active. The compound also showed a half-life in series [13] of 2 h.

For `O=C(O)C[C@@H](NC(=O)CNC(=O)c1cc(O)cc(NC2=NCCCN2)c1)c1cc(Cl)cc(I)c1O`, the results for the IC50 on Integrin alpha-V/beta-3 and against Integrin alpha-V/beta-6 [1] were 0.009 µM and 1.78 µM, respectively.

`O=C(O)C[C@H](NC(=O)CNC(=O)c1cc(O)cc(N=C2NCC(F)CN2)c1)c1cc(Cl)cc(Br)c1O` (stereo not given in full) gave an IC50 on Integrin alpha-V/beta-3 of 0.0006 µM. In [9], this compound gave a bioavailability of 13.6%. The compound also had a half-life in series [13] of 5.1 h.

For the compound `O=C(O)C[C@@H](NC(=O)CNC(=O)c1cc(O)cc(NC2=NCC(O)CN2)c1)c1cc(Cl)cc(Cl)c1O` (stereo not given in full), the IC50 at Integrin alpha-V/beta-3 amounted to 0.003 µM; against Integrin alpha-V/beta-6 [1] it was 0.064 µM.

For `O=C(O)C[C@@H](NC(=O)CNC(=O)c1cc(O)cc(NC2=NCC(O)CN2)c1)c1cc(Br)cc(Cl)c1O` (stereo not given in full), the results for the IC50 on Integrin alpha-V/beta-3 and against Integrin alpha-V/beta-6 [11] were 0.007 µM and 0.588 µM, respectively.

Regarding `O=C(O)C[C@@H](NC(=O)CNC(=O)c1cncc(NC2=NCC(O)CN2)c1)c1cc(Br)cc(Br)c1O` (stereo not given in full), the values for the IC50 against Integrin alpha-V/beta-3 and against Integrin alpha-V/beta-6 [11] were 0.002 µM and 1.76 µM, respectively.

Take `O=C(O)C[C@@H](NC(=O)CNC(=O)c1cccc(NC2=NCC(F)CN2)c1)c1cc(Br)cc(Cl)c1O` (stereo not given in full): the IC50 was found to be 0.002 µM against Integrin alpha-V/beta-3 and 0.025 µM at Integrin alpha-V/beta-6 [11].

As to `O=C(O)C[C@@H](NC(=O)CNC(=O)c1cc(O)cc(NC2=NCC(F)CN2)c1)c1cc(Br)cc(Br)c1` (stereo not given in full), the IC50 on Integrin alpha-V/beta-3 is 0.005 µM; at Integrin alpha-V/beta-6 [11] it was 0.02 µM.

On to `O=C(O)C[C@@H](NC(=O)CNC(=O)c1cncc(NC2=NCC(O)CN2)c1)c1cc(Cl)cc(I)c1O` (stereo not given in full), for which the IC50 against Integrin alpha-V/beta-3 is 0.001 µM; on Integrin alpha-V/beta-6 [1] it was 0.622 µM.

As to `O=C(O)C[C@@H](NC(=O)CNC(=O)c1cncc(NC2=NCC(F)CN2)c1)c1cc(Cl)cc(Cl)c1O` (stereo not given in full), the IC50 amounted to 0.001 µM at Integrin alpha-V/beta-3 and 0.014 µM against Integrin alpha-V/beta-6 [11].

Regarding `Cc1cc(C)c(O)c([C@@H](CC(=O)O)NC(=O)CNC(=O)c2cc(O)cc(NC3=NCC(O)CN3)c2)c1` (stereo not given in full), the values for the IC50 against Integrin alpha-V/beta-3 and against Integrin alpha-V/beta-6 [11] were 0.054 µM and 0.118 µM, respectively.

Regarding `Nc1cc(NC2=NCC(O)CN2)cc(C(=O)NCC(=O)N[C@H](CC(=O)O)c2cc(Br)cc(Cl)c2O)c1` (stereo not given in full), the IC50 worked out at 0.033 µM against Integrin alpha-V/beta-3 and 0.216 µM against Integrin alpha-V/beta-6 [11].

`O=C(O)C[C@@H](NC(=O)CNC(=O)c1cccc(NC2=NCCCN2)c1)c1cc(Cl)cc(Cl)c1O`: the IC50 on Integrin alpha-V/beta-3 worked out at 0.004 µM; against Integrin alpha-V/beta-6 [11] it was 0.024 µM.

For `O=C(O)C[C@@H](NC(=O)CNC(=O)c1cccc(N=C2NCC(F)CN2)c1)c1cc(Cl)cc(Br)c1O` (stereo not given in full), the results for the IC50 against Integrin alpha-V/beta-3 and against Integrin alpha-V/beta-6 [11] were 0.001 µM and 1.42 µM, respectively.

As for `O=C(O)C[C@@H](NC(=O)CNC(=O)c1cccc(NC2=NCC(O)CN2)c1)c1cc(Cl)cc(Cl)c1O` (stereo not given in full), the IC50 against Integrin alpha-V/beta-3 came out at 0.0007 µM; at Integrin alpha-V/beta-6 [1] it was 0.02 µM.

Consider `O=C(O)C[C@@H](NC(=O)CNC(=O)c1cc(O)cc(NC2=NCC(F)CN2)c1)c1cc(Cl)cc(I)c1O` (stereo not given in full), for which the IC50 is 0.003 µM against Integrin alpha-V/beta-3 and 0.164 µM against Integrin alpha-V/beta-6 [1].

With `O=C(O)C[C@@H](NC(=O)CNC(=O)c1cccc(NC2=NCCCN2)c1)c1cc(Cl)cc(I)c1O`, the IC50 against Integrin alpha-V/beta-3 stood at 0.007 µM; against Integrin alpha-V/beta-6 [11] it was 10 µM.

Take `O=C(O)C[C@@H](NC(=O)CNC(=O)c1cccc(NC2=NCCCN2)c1)c1cc(Br)cc(Br)c1O`: the IC50 on Integrin alpha-V/beta-3 stood at 0.004 µM; at Integrin alpha-V/beta-6 [11] it was 3.21 µM.

In the case of `O=C(O)C[C@@H](NC(=O)CNC(=O)c1cccc(NC2=NCCCN2)c1)c1cc(Cl)cc(Br)c1O`, the IC50 against Integrin alpha-V/beta-3 turned out to be 0.005 µM; at Integrin alpha-V/beta-6 [11] it was 6.54 µM.

The IC50 is the concentration that inhibits the measured activity by half. In general, bioavailability refers to the share of a dose that reaches the circulation, judged against a reference dose that is usually intravenous. For orientation: half-life means how long it takes for the measured level to halve.
